Data taken from US11607422B2, “Uttroside B and derivatives thereof as therapeutics for hepatocellular carcinoma” (Rajiv Gandhi Centre for Biotechnology, an Autonomous …, priority 2016, dated 2023).

How the values were obtained:
HepG2 cells = experiment: Clonogenic assay in HepG2 cells; format: cell-based, human; conditions: 72 h treatment, then 1 week
Description: FIG. 2A is a graph comparison of IC50 of Uttroside B in a panel of cancer cells of different origin. The cancer cell lines HeLa, A375, HepG2, MDA-MB-231, HL 60, A549 and HCT116 were treated with Uttroside B as indicated, incubated for 72 h and the cell viability was assessed by MTT assay. FIG. 2B is a graph showing dose dependent effect of Uttroside B in the liver cancer cell lines and in normal immortalized hepatocytes. The liver cancer cell lines HepG2, Hep3B, SKHEP-1, Huh-7 and normal hepatocytes (Chang liver), were treated with Uttroside B incubated for 72 h and the cell viability was assessed by MTT assay. FIG. 2C is a graph comparison of IC50 of Uttroside B with sorafenib. HepG2 cells were treated with Uttroside B as indicated, incubated for 72 h, and the cell viability was assessed by MTT assay. FIG. 2D is an image of the morphological changes induced by Uttroside B in HepG2 cells. HepG2 cells were treated with Uttroside B as indicated and incubated for 72 h. FIG. 2E is an image showing Uttroside B inhibits the clonogenic potential of HepG2 cells. HepG2 cells were treated with different concentrations of Uttroside B for 72 h and the clonogenic assay was performed. […] The clones developed were counted and plotted as a graph. Colony containing more than four cells was counted as one clone. […]

LC3 in HepG2 cells = experiment: Autophagy flux (LC3I to LC3II conversion) with Bafilomycin; format: cell-based, human; conditions: Uttroside B 500 nM + Bafilomycin 10 nM, 24 h
Description: Concentration dependent effect of BafilomycinAl on the endogenous conversion of LC3I to LC3II in HepG2 cells. Cells were treated with Bafilomycin Al at different concentration and the whole cell lysate was resolved on a 15% gel and immunoblotted against LC3 antibody. Uttroside B is an autophagy inducer in HepG2 cells as analysed by autophagy flux using Bafilomycin Al. […] The increase in LC3 II could not be considered as a fool proof of autophagic induction because a blockage in any step leading from autophagosome maturation to its fusion with lysosomes could cause its accumulation. So, the effect of Uttroside B in HepG2 cells were analyzed for autophagy flux, a more accurate read out of autophagy on co-treatment with Bafilomycin, an autophagy-lysosome inhibitor. Bafilomycin A, blocks autophagy by blocking the fusion of autophagosome with lysosome which cause the accumulation of autophagosome or LC3. First, the concentration of Bafilomycin Al required for saturating the blockage of autophagy-lysosome fusion was standardized. The efficacy of Bafilomycin Al, in terms of blocking autophagosome degradation in HepG2, was found peaked at 10 nM, beyond which no further accumulation of LC3 II was noted, which matched with the earlier reports.^32,37,38 […]

With `C[C@H](CC[C@@]1(O)O[C@H]2C[C@H]3[C@@H]4CC[C@H]5C[C@@H](O[C@@H]6O[C@H](CO)[C@H](O[C@@H]7O[C@H](CO)[C@@H](O)[C@H](O[C@@H]8OC[C@@H](O)[C@H](O)[C@H]8O)[C@H]7O[C@@H]7O[C@H](CO)[C@@H](O)[C@H](O)[C@H]7O)[C@H](O)[C@H]6O)CC[C@]5(C)[C@H]4CC[C@]3(C)[C@H]2[C@@H]1C)CO[C@@H]1O[C@H](CO)[C@@H](O)[C@H](O)[C@H]1O` [Uttroside B] the “anti-clonogenic potential (colonies formed)” value (HepG2 cells) was “drastic dose dependent reduction in both number and size of the colonies formed” and the “LC3II on co-treatment with Bafilomycin” value (LC3 in HepG2 cells) was “surplus accumulation of LC3II”.
